Like-named read-outs stand apart in the source and are kept apart here.

Test [1] has as its target α-glucosidase. Put plainly: α-Glucosidase inhibition activity assay (p-NPG). Conditions: 1 U/mL enzyme, pH 6.8, 37 °C. The format is biochemical, Saccharomyces cerevisiae. The source says:
The Folin–Ciocalteu phenol reagent and chemicals used for the antioxidant activity assay were purchased from Aladdin Industrial Corporation (Shanghai, China). Phenolic standards, trolox, p-Nitrophenyl-α-D-glucopyranoside (p-NPG, > 99.8%), porcine pancreatic α-amylase (13 U/mg), and α-glucosidase (≥ 58 U/mg solid) from Saccharomyces cerevisiae were all purchased from Sigma-Aldrich (St. Louis, MO, USA). Analytical-grade materials were purchased from Guangzhou Reagent Co. (Guangzhou, China). Formic acid and acetonitrile used for the HPLC analysis were of chromatography grade. Water was purified by the Milli-Q (Millipore, MA, USA) system and filtered through membranes with a pore size of 0.22 μm before use.
The inhibitory activity of α-glucosidase was performed as the previous reported method with modifications. Briefly, 100 μL of the extracts’ dilutions and 100 μL of 1 U/mL α-glucosidase in 0.1 M phosphate buffer solution (pH 6.8) was mixed and pre-incubated at 37 °C for 10 min. Then, 100 μL of 5 mM p-NPG solution was added, and the reaction solution was incubated for another 20 min. The reaction was terminated by adding 500 μL of 0.2 M Na2CO3 solution. The absorbance at 405 nm was recorded. […] The inhibitory potency (%) was calculated by Equation (3). (3) α-Glucosidase inhibitory potency (%) = [1−ΔAs/ΔAc]×100 where ΔAs = Aextract+enzyme − Aextract, ΔAc = Abuffer+enzyme − Abuffer.

On the set-up of test [2]: method as in Malinda et al. (2017) [34]. Conditions: ref Malinda et al. (2017) [34]; cited from earlier work.
Test [3] relates to α-glucosidase. The conditions noted are these: cited from earlier work.
The target in test [4] is T1, porcine pancreatic α-amylase (Sus scrofa, UniProt P00690).
T1 construct: purchased Sigma-Aldrich
T1 sequence (P00690 16-511): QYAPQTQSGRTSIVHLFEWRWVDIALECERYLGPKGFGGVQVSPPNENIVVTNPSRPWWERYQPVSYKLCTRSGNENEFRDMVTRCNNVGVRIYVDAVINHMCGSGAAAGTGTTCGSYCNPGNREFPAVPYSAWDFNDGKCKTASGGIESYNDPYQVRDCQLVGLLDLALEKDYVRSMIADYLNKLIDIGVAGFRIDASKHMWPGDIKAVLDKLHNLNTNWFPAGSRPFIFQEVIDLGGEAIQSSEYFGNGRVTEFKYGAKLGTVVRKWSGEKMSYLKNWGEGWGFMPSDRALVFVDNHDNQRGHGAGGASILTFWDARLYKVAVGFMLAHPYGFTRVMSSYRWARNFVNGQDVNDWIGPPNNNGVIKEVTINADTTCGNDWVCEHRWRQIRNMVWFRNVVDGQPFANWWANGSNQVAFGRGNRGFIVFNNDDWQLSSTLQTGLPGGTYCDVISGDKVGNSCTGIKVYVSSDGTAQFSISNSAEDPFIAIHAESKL
Put plainly: α-Amylase inhibition activity assay (starch/DNS). Conditions: 0.5 mg/mL enzyme, pH 6.8, 37 °C. The test is classed as biochemical. From the text:
The Folin–Ciocalteu phenol reagent and chemicals used for the antioxidant activity assay were purchased from Aladdin Industrial Corporation (Shanghai, China). […] Analytical-grade materials were purchased from Guangzhou Reagent Co. (Guangzhou, China). Formic acid and acetonitrile used for the HPLC analysis were of chromatography grade. Water was purified by the Milli-Q (Millipore, MA, USA) system and filtered through membranes with a pore size of 0.22 μm before use.

Test [5] in a line: DPPH radical scavenging activity assay. The conditions noted are these: extracts made with 50% methanol. As to the method: DPPH assay was measured based on the method described earlier. The absorbance at 517 nm was recorded by a microplate reader (SpectraMax M5 Molecular Device, CA, USA). Trolox or Vc solution (5–100 μg/mL) were served as positive controls. […] (1) DPPH radical scavenging activity (%) = (1−As−Ab/Ac)×100 where As = the absorbance of the sample extracts with DPPH solution, Ab = the absorbance of the sample extracts without DPPH solution, Ac = the absorbance of DPPH solution.
Background: DPPH is a stable violet radical that fades when it is reduced.

A short description of test [6]: ABTS cation radical scavenging activity assay. Conditions: extracts made with 50% methanol. As to the method: ABTS assay was determined according to the method of Wang et al. (2017). The absorbance at […] was recorded by the microplate reader. Trolox or Vc solution (5–100 μg/mL) was served as positive controls. The scavenging activity (%) was calculated by Equation (2). (2) ABTS^+ radical scavenging activity (%) = (1−As−Ab/Ac)×100 where As = the absorbance of the extracts with ABTS^+ solution, Ab = the absorbance of the extracts without ABTS^+ solutionl, Ac = the absorbance of ABTS^+ solution.

Test [7] in a line: Hydroxyl (OH^−) radical scavenging activity assay. Conditions: extracts made with 50% methanol. As to the method: The scavenging activity of OH[…] radicals was measured based on the method described by Liu et al., 2017 [19]. The reaction mixture included 100 μL of the extracts’ dilutions, 100 μL of 6 mM […] solution, and 100 μL of 2.4 mM H2O2. After 10 min of incubation at 25°C, the mixture was incubated with 100 μL of 6 mM salicylic acid at 25 °C for 30 min, then the absorbance at 510 nm was measured. A Trolox or Vc solution (5–100 μg/mL) served as the positive control.

The mark [8] stands for this setting: constituents in raspberry, ref Zhang et al. (2010) [39].

Regarding `O=c1oc2c(O)c(O)cc3c(=O)oc4c(O)c(O)cc1c4c23` [EA, Ellagic acid], on α-glucosidase [1], the “α-glucosidase inhibition IC50” value was determined as 976.32 ± 41.72 µg/mL. The “DPPH radical scavenging activity IC50” value in test [2] was 4.80 µg/mL. Moreover, the α-glucosidase inhibitory capacity entry in the test on α-glucosidase [3] (setting [8]) is on record as “weakest”.

In the case of `O=C(O)c1cc(O)c(O)c(O)c1` [GA, Gallic acid], the “α-glucosidase inhibition IC50” value at α-glucosidase [1] worked out at 590.34 ± 15.71 µg/mL. For the same molecule, the “DPPH radical scavenging activity IC50” value in test [2] was 2.24 µg/mL. For the same molecule, in the test with α-glucosidase [3] (setting [8]), the α-glucosidase inhibitory capacity result is given as “strong”.

`Oc1cc(O)c2c(c1)O[C@H](c1ccc(O)c(O)c1)[C@@H](O)[C@@H]2c1c(O)cc(O)c2c1O[C@H](c1ccc(O)c(O)c1)[C@@H](O)[C@@H]2c1c(O)cc(O)c2c1O[C@H](c1ccc(O)c(O)c1)[C@@H](O)C2` [PC, Procyanidin C3]: the “α-glucosidase inhibition IC50” value on α-glucosidase [1] worked out at 93.37 ± 5.79 µg/mL. Moreover, the “α-amylase inhibition IC50” value in test [4] stood at 92.31 ± 3.51 µg/mL. Also, the α-glucosidase inhibitory capacity entry with α-glucosidase [3] (ref Wang et al. (2018) [38]) is recorded as “strong”.

As to `Cc1c(C)c2c(c(C)c1O)CCC(C)(C(=O)O)O2` (stereo not drawn) [Trolox], the “DPPH radical scavenging IC50” value in test [5] came to 39.90 ± 0.67 µg/mL. Moreover, the “ABTS^+ free radical scavenging IC50” value in test [6] came to 41.50 ± 1.97 µg/mL. Besides, the “OH^− free radical scavenging IC50” value in test [7] was 33.91 ± 1.82 µg/mL.

Regarding `O=C1O[C@H]([C@@H](O)CO)C(O)=C1O` [Vc, ascorbic acid], the “DPPH radical scavenging IC50” value in test [5] turned out to be 16.80 ± 1.31 µg/mL. For the same molecule, in test [7], the “OH^− free radical scavenging IC50” value came out at 19.83 ± 0.37 µg/mL.

Turning to `C[C@@H]1O[C@@H](OC[C@H]2O[C@@H](Oc3c(-c4ccc(O)c(O)c4)oc4cc(O)cc(O)c4c3=O)[C@H](O)[C@@H](O)[C@@H]2O)[C@H](O)[C@H](O)[C@H]1O` [rutin, Rutin], in the test on α-glucosidase [3] (setting [8]), the α-glucosidase inhibitory capacity result is recorded as “strong”.

The values are drawn from publication PMC6719955, “HPLC-ESI-qTOF-MS/MS Characterization, Antioxidant Activities and Inhibitory Ability of Digestive Enzymes with Molecular Docking Analysis of Various Parts of Raspberry (Rubus ideaus L.)” (Antioxidants, 2019).
